Assay results as given in article PMC10978636, “Hydroxy(phenyl)pyruvic acid reductase in Actaea racemosa L.: a putative enzyme in cimicifugic and fukinolic acid biosynthesis” (Planta, 2024).

System: ArH(P)PR
Assay: photometric NAD(P)H oxidation at […] nm, Michaelis-Menten fit
Assay type: biochemical, Actaea racemosa
Settings: 0.1 M KPi pH 7.5
[1] = co-substrate concentration not in main text (Suppl. Table S3)

| SMILES | Km (1 mM NADPH) [µM] | also measured |
| --- | --- | --- |
| O=C(O)C(=O)Cc1ccc(O)c(O)c1 [DHPP, 3,4-dihydroxyphenylpyruvic acid] | 24000 ± 4650 | – |
| NC(=O)C1=CN([C@@H]2O[C@H](COP(=O)(O)OP(=O)(O)OC[C@H]3O[C@@H](n4cnc5c(N)ncnc54)[C@H](O)[C@@H]3O)[C@@H](O)[C@H]2O)C=CC1 [NADH] | – | Km [1]: 660 ± 90 µM |
| NC(=O)C1=CN([C@@H]2O[C@H](COP(=O)(O)OP(=O)(O)OC[C@H]3O[C@@H](n4cnc5c(N)ncnc54)[C@H](OP(=O)(O)O)[C@@H]3O)[C@@H](O)[C@H]2O)C=CC1 [NADPH] | – | Km [1]: 23 ± 4 µM |
| CC(=O)C(=O)O [P, pyruvic acid] | 1890 ± 510 | – |
| O=C(O)C(=O)Cc1ccccc1 [PP, phenylpyruvic acid] | 5320 ± 2770 | – |
| O=C(O)C(=O)Cc1ccc(O)cc1 [pHPP, 4-hydroxyphenylpyruvic acid] | 1130 ± 120 | – |
| O=C(O)C(=O)CO [β-HP, β-hydroxypyruvic acid] | – | Km (1 mM NADPH, error is SEM, substrate inhibition above 1 mM): 260 ± 120 µM |
